The target of assay [1] is T1, α2A (alpha-2A adrenergic receptor) (Homo sapiens, UniProt P08913).
T1 construct: purchased Eurofins Cerep SafetyScreen44
T1 sequence (P08913 1-465): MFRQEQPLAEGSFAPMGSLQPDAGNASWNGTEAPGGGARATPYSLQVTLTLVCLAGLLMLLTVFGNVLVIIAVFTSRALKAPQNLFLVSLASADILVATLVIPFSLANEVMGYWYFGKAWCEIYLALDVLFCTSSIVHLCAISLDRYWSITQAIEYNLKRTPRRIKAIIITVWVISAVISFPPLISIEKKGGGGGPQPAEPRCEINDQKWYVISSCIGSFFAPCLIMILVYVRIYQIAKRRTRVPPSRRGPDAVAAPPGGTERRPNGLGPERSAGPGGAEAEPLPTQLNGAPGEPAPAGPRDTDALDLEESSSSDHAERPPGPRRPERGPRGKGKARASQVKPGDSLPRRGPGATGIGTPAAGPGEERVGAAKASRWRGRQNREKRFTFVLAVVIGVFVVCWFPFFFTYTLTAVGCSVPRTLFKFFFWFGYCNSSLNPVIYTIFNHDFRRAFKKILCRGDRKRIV
As to the kind of experiment: SafetyScreen44: α2A. The format is binding.

The target in assay [2] is T2, M3 (muscarinic acetylcholine receptor M3) (Homo sapiens, UniProt P20309).
T2 construct: purchased Eurofins Cerep SafetyScreen44
T2 sequence (P20309 whole entry): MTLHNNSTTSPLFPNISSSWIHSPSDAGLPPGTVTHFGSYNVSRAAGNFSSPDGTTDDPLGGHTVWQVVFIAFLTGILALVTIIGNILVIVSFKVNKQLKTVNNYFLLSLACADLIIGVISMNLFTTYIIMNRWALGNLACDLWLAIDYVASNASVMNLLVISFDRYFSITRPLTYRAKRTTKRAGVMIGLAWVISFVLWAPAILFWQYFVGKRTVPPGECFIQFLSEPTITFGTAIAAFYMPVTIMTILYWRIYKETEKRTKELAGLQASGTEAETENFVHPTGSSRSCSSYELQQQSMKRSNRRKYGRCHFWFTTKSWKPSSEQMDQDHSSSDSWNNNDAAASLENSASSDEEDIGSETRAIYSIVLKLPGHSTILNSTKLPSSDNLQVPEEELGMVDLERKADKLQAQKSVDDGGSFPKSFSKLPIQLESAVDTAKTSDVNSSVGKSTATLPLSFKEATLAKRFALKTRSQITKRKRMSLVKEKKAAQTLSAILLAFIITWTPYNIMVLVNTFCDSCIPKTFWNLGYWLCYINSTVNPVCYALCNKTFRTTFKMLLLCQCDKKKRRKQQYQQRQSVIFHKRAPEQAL
As to the kind of experiment: SafetyScreen44: M3. The format is binding.

The target of assay [3] is T3, δ (DOP) (delta opioid receptor) (Homo sapiens, UniProt P41143).
T3 construct: purchased Eurofins Cerep SafetyScreen44
T3 sequence (P41143 whole entry): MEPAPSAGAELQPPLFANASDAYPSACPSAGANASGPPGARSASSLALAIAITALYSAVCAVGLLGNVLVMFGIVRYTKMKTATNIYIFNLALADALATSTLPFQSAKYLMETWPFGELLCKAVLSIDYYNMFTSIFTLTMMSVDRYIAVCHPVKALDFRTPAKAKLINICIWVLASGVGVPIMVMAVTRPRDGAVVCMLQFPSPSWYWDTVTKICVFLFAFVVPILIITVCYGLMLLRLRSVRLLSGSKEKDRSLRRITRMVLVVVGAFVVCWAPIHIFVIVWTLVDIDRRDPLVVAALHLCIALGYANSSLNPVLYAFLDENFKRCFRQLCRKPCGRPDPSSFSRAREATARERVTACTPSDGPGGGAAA
Description: SafetyScreen44: δ (DOP). It counts as binding.

Assay [4] concerns the target T4, 5-HT3 (serotonin 3 receptor) (Homo sapiens, UniProt P46098).
T4 construct: purchased Eurofins Cerep SafetyScreen44
T4 sequence (P46098 24-478): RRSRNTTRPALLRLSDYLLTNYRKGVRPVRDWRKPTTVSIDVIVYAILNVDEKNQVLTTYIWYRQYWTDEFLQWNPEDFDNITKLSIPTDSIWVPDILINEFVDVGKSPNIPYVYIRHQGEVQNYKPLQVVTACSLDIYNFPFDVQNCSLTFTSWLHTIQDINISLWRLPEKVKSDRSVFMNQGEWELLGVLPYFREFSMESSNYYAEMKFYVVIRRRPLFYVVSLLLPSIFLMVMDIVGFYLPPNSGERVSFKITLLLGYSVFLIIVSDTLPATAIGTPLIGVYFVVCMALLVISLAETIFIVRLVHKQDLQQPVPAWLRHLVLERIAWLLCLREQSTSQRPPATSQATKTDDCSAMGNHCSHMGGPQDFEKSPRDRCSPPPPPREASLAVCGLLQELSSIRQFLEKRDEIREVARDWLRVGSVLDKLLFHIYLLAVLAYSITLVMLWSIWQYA
Description: SafetyScreen44: 5-HT3. The format is binding.

For a further assay, the target named is T5, AR (androgen receptor) (Homo sapiens, UniProt P10275, T878A).
T5 construct: purchased Eurofins Cerep SafetyScreen44
T5 sequence (P10275 1-920 T878A): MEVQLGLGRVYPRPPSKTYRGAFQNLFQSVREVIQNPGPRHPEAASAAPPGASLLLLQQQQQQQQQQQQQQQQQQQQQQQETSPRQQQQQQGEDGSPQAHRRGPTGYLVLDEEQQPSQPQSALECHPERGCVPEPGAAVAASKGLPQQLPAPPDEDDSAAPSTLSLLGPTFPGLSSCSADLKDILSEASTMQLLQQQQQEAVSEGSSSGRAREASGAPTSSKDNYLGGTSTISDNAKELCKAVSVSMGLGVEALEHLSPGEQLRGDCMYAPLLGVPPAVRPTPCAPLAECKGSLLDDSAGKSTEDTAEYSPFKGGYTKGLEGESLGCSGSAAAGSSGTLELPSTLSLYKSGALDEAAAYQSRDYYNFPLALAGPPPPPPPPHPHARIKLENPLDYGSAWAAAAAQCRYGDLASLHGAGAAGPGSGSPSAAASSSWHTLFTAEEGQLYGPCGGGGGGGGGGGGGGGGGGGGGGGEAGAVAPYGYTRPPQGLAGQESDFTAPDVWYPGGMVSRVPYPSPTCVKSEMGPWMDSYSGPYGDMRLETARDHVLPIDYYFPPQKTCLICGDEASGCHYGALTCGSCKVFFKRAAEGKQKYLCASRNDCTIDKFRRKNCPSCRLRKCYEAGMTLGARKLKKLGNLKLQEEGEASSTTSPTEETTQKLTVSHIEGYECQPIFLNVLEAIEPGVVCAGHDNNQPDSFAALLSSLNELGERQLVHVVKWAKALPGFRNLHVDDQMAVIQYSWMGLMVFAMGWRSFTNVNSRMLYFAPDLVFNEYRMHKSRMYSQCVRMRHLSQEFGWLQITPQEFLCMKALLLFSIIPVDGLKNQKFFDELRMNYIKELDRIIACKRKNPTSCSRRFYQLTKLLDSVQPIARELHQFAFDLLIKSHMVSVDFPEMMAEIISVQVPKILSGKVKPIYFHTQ
As to the kind of experiment: SafetyScreen44: AR. It counts as binding.

Another assay addresses T6, COX1 (Homo sapiens, UniProt P23219).
T6 construct: purchased Eurofins Cerep SafetyScreen44
As to the kind of experiment: SafetyScreen44: COX1. The format is biochemical.

Where two headings read alike, the source gives them in different places.

T6 sequence (P23219 24-599): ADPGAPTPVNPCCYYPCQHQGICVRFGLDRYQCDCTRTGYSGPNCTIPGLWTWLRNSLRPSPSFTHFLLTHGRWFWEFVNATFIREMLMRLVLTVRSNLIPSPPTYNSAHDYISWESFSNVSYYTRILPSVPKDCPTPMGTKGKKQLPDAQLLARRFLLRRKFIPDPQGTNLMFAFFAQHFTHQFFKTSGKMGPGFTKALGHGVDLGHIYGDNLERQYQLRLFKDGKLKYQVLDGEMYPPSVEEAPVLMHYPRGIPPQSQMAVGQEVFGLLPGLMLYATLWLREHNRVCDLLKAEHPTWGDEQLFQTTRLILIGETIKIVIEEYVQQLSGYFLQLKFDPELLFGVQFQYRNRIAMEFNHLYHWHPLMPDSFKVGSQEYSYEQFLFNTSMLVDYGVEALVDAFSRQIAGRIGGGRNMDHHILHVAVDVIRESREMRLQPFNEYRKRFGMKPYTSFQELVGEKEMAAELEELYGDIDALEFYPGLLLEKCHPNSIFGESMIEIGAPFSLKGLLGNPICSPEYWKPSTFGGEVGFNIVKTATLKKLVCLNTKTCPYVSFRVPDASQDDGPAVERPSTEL

The inhibition is the relative decrease from the control value, in per cent. Consider `CC(=O)NCCCC[C@@H]1NC(=O)[C@H](Cc2c[nH]c3c(C)cccc23)NC(=O)[C@H]([C@@H](C)O)NC(=O)[C@H](CC(N)=O)NC(=O)[C@@H](NC(C)=O)C(C)(C)SSC(C)(C)[C@@H](C(=O)N[C@@H](Cc2ccc(OCCN)cc2)C(=O)N[C@@H](Cc2ccc3ccccc3c2)C(=O)NC2(C(=O)N[C@@H](CCC(=O)O)C(=O)N[C@@H](CC(N)=O)C(=O)N[C@@H](Cc3cccnc3)C(=O)N(C)CC(N)=O)CCOCC2)NC1=O` [JNJ-77242113, S^3,1,S^3,6-cyclo[N-acetyl-3-sulfanyl-L-valyl-L-asparaginyl-L-threonyl-7-methyl-L-tryptophyl-N^6-acetyl-L-lysyl-3-sulfanyl-L-valyl-O-(2-aminoethyl)-L-tyrosyl-3-(naphthalen-2-yl)-L-alanyl-4-aminooxan-4-carbonyl-L-α-glutamyl-L-asparaginyl-3-(pyridin-3-yl)-L-alanyl-N^2-methylglycinamide]], for which the inhibition at 10 µM was 0.4% in assay [1] (1st run, read-out: Percent inhibition of control ligand binding, α2A, 1st run); -2.6% in assay [1] (2nd run, read-out: Percent inhibition of control ligand binding, α2A, 2nd run); -1.1% in assay [1] (mean of 2 runs, read-out: Percent inhibition of control ligand binding, α2A, Mean); -10.5% in assay [2] (1st run, read-out: Percent inhibition of control ligand binding, M3, 1st run); -5.2% in assay [2] (2nd run, read-out: Percent inhibition of control ligand binding, M3, 2nd run); -7.8% in assay [2] (mean of 2 runs, read-out: Percent inhibition of control ligand binding, M3, Mean). The inhibition at 10 µM was -7.8% in assay [3] (1st run, read-out: Percent inhibition of control ligand binding, δ (DOP), 1st run); 0.4% in assay [3] (2nd run, read-out: Percent inhibition of control ligand binding, δ (DOP), 2nd run); -3.7% in assay [3] (mean of 2 runs, read-out: Percent inhibition of control ligand binding, δ (DOP), Mean); 0.7% in assay [4] (1st run, read-out: Percent inhibition of control ligand binding, 5-HT3, 1st run); 3.4% in assay [4] (2nd run, read-out: Percent inhibition of control ligand binding, 5-HT3, 2nd run); 2.1% in assay [4] (mean of 2 runs, read-out: Percent inhibition of control ligand binding, 5-HT3, Mean). The inhibition at 10 µM on AR (androgen receptor) (1st run, read-out: Percent inhibition of control ligand binding, AR, 1st run) is -5.6%; on AR (androgen receptor) (2nd run, read-out: Percent inhibition of control ligand binding, AR, 2nd run) it was -3.7%; at AR (androgen receptor) (mean of 2 runs, read-out: Percent inhibition of control ligand binding, AR, Mean), -4.7%; at COX1 (1st run, read-out: Percent inhibition of control ligand binding, COX1, 1st run), -18.8%; at COX1 (2nd run, read-out: Percent inhibition of control ligand binding, COX1, 2nd run), -37.6%; at COX1 (mean of 2 runs, read-out: Percent inhibition of control ligand binding, COX1, Mean), -28.2%.

These data come from paper PMC11289455 (Scientific Reports, 2024).
